Experimental findings from BindingDB's records for doi:10.7270/Q2J96B77 (D3R/Abbott, 2020) are described below.

This test deals with Cathepsin S (Homo sapiens, UniProt P25774). The test is described as follows: D3R2020.
Chain of Cathepsin S (P25774 whole entry): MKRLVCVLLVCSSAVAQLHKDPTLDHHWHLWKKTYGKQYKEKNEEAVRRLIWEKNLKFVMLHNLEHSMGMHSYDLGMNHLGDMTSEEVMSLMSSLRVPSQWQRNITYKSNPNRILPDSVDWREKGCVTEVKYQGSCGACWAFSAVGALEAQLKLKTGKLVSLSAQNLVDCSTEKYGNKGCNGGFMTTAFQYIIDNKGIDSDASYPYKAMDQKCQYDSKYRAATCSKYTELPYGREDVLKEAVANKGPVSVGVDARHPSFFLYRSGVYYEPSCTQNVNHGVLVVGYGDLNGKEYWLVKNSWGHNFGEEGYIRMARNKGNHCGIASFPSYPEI

For orientation: IC50 means the concentration that gives 50% inhibition. A low value points to greater potency. Compound `COc1ccccc1C1CCN(C[C@H](O)Cn2nc(-c3ccc(C(F)(F)F)c(SCCN4CCCCC4)c3)c3c2CCNC3)CC1` [CatS_5] came in with a half-maximal inhibitory concentration (IC50) of 200 nM.
The value for `CS(=O)(=O)N1CCc2c(c(-c3ccc(Cl)c(C#Cc4ccc(C=O)cc4)c3)nn2CCCN2CCOCC2)C1` [CatS_64] was 110 nM; that for `CC(C)=CC(=O)NCc1cc(-c2nn(CCCN3CCOCC3)c3c2CN(C(=O)CC2CCN(C(=O)OC(C)(C)C)CC2)CC3)ccc1C(F)(F)F` [CatS_18] was 170 nM.
The value for `COC(=O)CNCc1cc(C#Cc2cc(-c3nn(CCCN4CCOC[C@@H]4C)c4c3CN(C(N)=O)CC4)ccc2Cl)ccc1Cl` [CatS_109] was 25 nM; that for `Cn1c(=O)n(C2CCN(CCCn3nc(-c4ccc(C(F)(F)F)cc4)c4c3CCN(C(=O)c3c[nH]cn3)C4)CC2)c2ccccc21` [CatS_3] was 55 nM; that for `CS(=O)(=O)N1CCc2c(c(-c3ccc(Cl)c(C#Cc4ccc(CNCc5ccc(Cl)cc5)cc4)c3)nn2CCCN2CCC(N3CCCC3=O)CC2)C1` [CatS_43] was 18 nM.
Consider `CNCCCNC(=O)c1ccc(C#Cc2cc(-c3nn(CCCN4CCOC[C@@H]4C)c4c3CN(C(=O)C(N)=O)CC4)ccc2Cl)cc1` [CatS_111], for which half-maximal inhibition (IC50) was put at 35 nM.
The value for `COC(=O)[C@@H]1Cc2ccc(C#Cc3cc(-c4nn(CCCN5CCOCC5)c5c4CN(S(C)(=O)=O)CC5)ccc3Cl)cc2CN1` [CatS_71] was 65 nM; that for `C[C@H]1COCCN1CCCn1nc(-c2ccc(Cl)c(C#Cc3ccc(Cl)c(CNCc4ccccc4)c3)c2)c2c1CCN(C(=O)C(N)=O)C2` [CatS_102] was 15 nM.
The value for `NC(=O)C(=O)N1CCc2c(c(-c3ccc(Cl)c(C#Cc4ccc(Cl)c(C(=O)N[C@@H](CO)c5ccccc5)c4)c3)nn2CCCN2CCSCC2)C1` [CatS_89] was 25 nM; that for `O=C(CO)N1CCc2c(c(-c3ccc(Cl)c(C#Cc4ccc(CNCc5ccc(Cl)cc5)cc4)c3)nn2CCCN2CCSCC2)C1` [CatS_40] was 95 nM.
The value for `CC(C)(C)OC(=O)N1CCC(C2CCN(C[C@H](O)Cn3nc(-c4ccc(Cl)c(CCc5ccc(Cl)cc5)c4)c4c3CCN(C(N)=O)C4)CC2)CC1` [CatS_121] was 25 nM; that for `NC(=O)N1CCc2c(c(-c3ccc(Cl)c(C#Cc4ccc(CN[C@@H]5CCCc6ccccc65)cc4)c3)nn2CCCN2CCOCC2)C1` [CatS_80] was 98 nM.
In turn, `CC1(C)CCN(C[C@H](O)Cn2nc(-c3ccc(C(F)(F)F)c(CNCc4ccc(F)cc4)c3)c3c2CCN(S(C)(=O)=O)C3)CC1` [CatS_8] gave an IC50 of 74 nM.
The value for `CS(=O)(=O)N1CCc2c(c(-c3ccc(Cl)c(C#Cc4ccc(CNCC(F)(F)F)cc4)c3)nn2CCCN2CCC(N3CCCC3=O)CC2)C1` [CatS_56] was 95 nM; that for `CC(C)(C)C1CCN(CCCn2nc(-c3ccc(C(F)(F)F)c(CNCc4ccc(F)cc4)c3)c3c2CCN(S(C)(=O)=O)C3)CC1` [CatS_12] was 30 nM.
The value for `C[C@H]1COCCN1CCCn1nc(-c2ccc(Cl)c(C#Cc3ccc(Cl)c(C(=O)NC[C@@H]4CCCN4)c3)c2)c2c1CCN(C(=O)C(N)=O)C2` [CatS_101] was 25 nM; that for `C[C@H]1COCCN1CCCn1nc(-c2ccc(Cl)c(CCc3ccc(CNCc4ccc(Cl)cc4)cc3)c2)c2c1CCN(C(=O)C(N)=O)C2` [CatS_95] was 35 nM; that for `CC(=O)N1CCc2c(c(-c3ccc(C(F)(F)F)c(SCC(=O)N4CCCC4)c3)nn2C[C@H](O)CN2CCC(C(C)(C)O)CC2)C1` [CatS_11] was 160 nM.
The value for `CC(=O)N1CCN(CCCn2nc(-c3ccc(C(F)(F)F)c(SCC(=O)N4CCOCC4)c3)c3c2CCN(S(C)(=O)=O)C3)CC1` [CatS_131] was 310 nM; that for `CS(=O)(=O)N1CCc2c(c(-c3ccc(Cl)c(C#Cc4ccc(CNCc5ccc(Cl)cc5)cc4)c3)nn2CCCN2CCN(C3CC3)CC2)C1` [CatS_17] was 64 nM; that for `C[C@H]1COCCN1CCCn1nc(-c2ccc(Cl)c(C#Cc3ccc(Cl)c(CNCCCO)c3)c2)c2c1CCN(C(N)=O)C2` [CatS_104] was 20 nM.
As to `NC(=O)N1CCc2c(c(-c3ccc(Cl)c(CCc4ccc(Cl)cc4)c3)nn2C[C@@H](O)CN2CCC(C3CCNCC3)CC2)C1` [CatS_117], the IC50 worked out at 15 nM.
The value for `CS(=O)(=O)N1CCc2c(c(-c3ccc(C(F)(F)F)c(CNCc4ccc(F)cc4)c3)nn2CCCN2CCC(C3CCCCC3)CC2)C1` [CatS_26] was 15 nM; that for `NC(=O)N1CCc2c(c(-c3ccc(Cl)c(C#Cc4ccc(Cl)c(CN5CCOCC5)c4)c3)nn2CCCN2CCCCC2)C1` [CatS_84] was 35 nM; that for `CS(=O)(=O)N1CCc2c(c(-c3ccc(Cl)c(C#Cc4cccc(CNCc5ccc(Cl)cc5)c4)c3)nn2CCCN2CCN(c3ccccc3)CC2)C1` [CatS_78] was 65 nM.
The value for `CC(C)=CC(=O)NCc1cc(-c2nn(CCCN(C)C)c3c2CN(C(=O)CC2CCNCC2)CC3)ccc1C(F)(F)F` [CatS_16] was 260 nM; that for `C[C@H]1COCCN1CCCn1nc(-c2ccc(Cl)c(C#Cc3ccc(C(=O)NCCN4CCOCC4)cc3)c2)c2c1CCN(C(=O)C(N)=O)C2` [CatS_100] was 45 nM; that for `CS(=O)(=O)N1CCc2c(c(-c3ccc(Cl)c(C#Cc4ccc(CN[C@H](CO)c5ccccc5)cc4)c3)nn2CCCN2CCN(c3ccccn3)CC2)C1` [CatS_75] was 25 nM.
The value for `CN(Cc1ccc(Cl)cc1)Cc1ccc(C#Cc2cc(-c3nn(CCCN4CCN(c5ccccc5)CC4)c4c3CN(S(C)(=O)=O)CC4)ccc2Cl)cc1` [CatS_76] was 72 nM; that for `CS(=O)(=O)N1CCc2c(c(-c3ccc(Cl)c(C#Cc4ccc(CN[C@@H]5c6ccccc6C[C@@H]5O)cc4)c3)nn2CCCN2CCN(c3ccccc3)CC2)C1` [CatS_77] was 35 nM; that for `CC(C)CCNCc1cc(-c2nn(CCCN3CCC(N4CCCC4=O)CC3)c3c2CN(S(C)(=O)=O)CC3)ccc1C(F)(F)F` [CatS_126] was 240 nM.
`CC1CCN(CCSc2cc(-c3nn(C[C@@H](O)CN4CCC(N5C[C@@H](O)CC5=O)CC4)c4c3CN(S(C)(=O)=O)CC4)ccc2C(F)(F)F)CC1` [CatS_13] showed an IC50 of 58 nM.
`NC(=O)C(=O)N1CCc2c(c(-c3ccc(Cl)c(C#Cc4ccc(Cl)c(CN[C@@H](CO)c5ccccc5)c4)c3)nn2CCCN2CCSCC2)C1` [CatS_88] returned an IC50 of 25 nM.
The value for `CS(=O)(=O)N1CCc2c(c(-c3ccc(C(F)(F)F)c(SCC(=O)N4CCC[C@@H]4C(N)=O)c3)nn2CCCN2CCC(N3CCCC3=O)CC2)C1` [CatS_129] was 85 nM; that for `CC(C)(O)CNCc1cc(C#Cc2cc(-c3nn(CCCN4CCSCC4)c4c3CN(C(=O)C(N)=O)CC4)ccc2Cl)ccc1Cl` [CatS_87] was 25 nM.
The value for `CC(=O)NC1CCN(CCCn2nc(-c3ccc(Cl)c(C#Cc4ccc5c(c4)CNCC5)c3)c3c2CCN(S(C)(=O)=O)C3)CC1` [CatS_50] was 37 nM; that for `CC(=O)NC1CCN(CCCn2nc(-c3ccc(C(F)(F)F)c(SCCO)c3)c3c2CCN(S(C)(=O)=O)C3)CC1` [CatS_132] was 340 nM.
The value for `CS(=O)(=O)N1CCc2c(c(-c3ccc(Cl)c(CCCN4CCOCC4)c3)nn2CCCN2CCC(N3CCCC3=O)CC2)C1` [CatS_123] was 1170 nM.
Consider `CCNCc1cc(C#Cc2cc(-c3nn(CCCN4CCCCC4)c4c3CN(C(=O)C(N)=O)CC4)ccc2Cl)ccc1Cl` [CatS_82], for which the IC50 amounted to 15 nM. This IC50 lies about 78-fold lower than the previous one.
The value for `C[C@H]1COCCN1CCCn1nc(-c2ccc(Cl)c(C#Cc3ccc(CNCc4ccc(Cl)cc4)cc3)c2)c2c1CCN(S(C)(=O)=O)C2` [CatS_98] was 76 nM.
